Experimental data: patent US20050118601A1, “Enhancer sequence of the 5-aminolevulinic acid synthase gene” (priority 2002, published 2005)

Assays:
mCAR = molecular target: T1, mCAR (Mus musculus, UniProt O35627); assay: Transactivation assays of human ALAS1 fragments with mCAR in CV-1 and HepG2 cells; format: cell-based
T1 construct: expressed in transfected cells; host or cells: monkey kidney CV-1 cells and human hepatoma HepG2 cells
T1 sequence (O35627 1-358): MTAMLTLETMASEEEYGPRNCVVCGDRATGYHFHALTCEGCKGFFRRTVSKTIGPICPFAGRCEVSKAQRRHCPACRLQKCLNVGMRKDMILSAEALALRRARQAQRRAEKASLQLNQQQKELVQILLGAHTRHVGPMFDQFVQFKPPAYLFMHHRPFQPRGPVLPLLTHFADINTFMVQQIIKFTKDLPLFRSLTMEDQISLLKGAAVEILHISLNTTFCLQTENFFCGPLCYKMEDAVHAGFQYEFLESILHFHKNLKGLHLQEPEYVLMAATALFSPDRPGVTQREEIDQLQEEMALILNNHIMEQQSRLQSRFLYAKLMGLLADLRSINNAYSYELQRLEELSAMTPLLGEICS
Method: In transactivation assays in a heterologous cell line (monkey kidney CV-1 cells) and human hepatoma HepG2 cells, we assessed which nuclear receptor conveys the observed activation. The two candidate receptors pregnane X receptor (PXR) and constitutive androstane receptor (CAR) were tested on these fragments.

[1] = tested on: chicken ALAS1 drug responsive enhancer sequence (ADRES) elements; assay: Luciferase reporter gene assay of chicken ALAS1 5'-flanking fragments / ADRES elements in transfected LMH cells; format: cell-based; conditions: LMH cells, 16 h; PIA 250 μM, glutethimide 500 μM, metyrapone 400 μM, dexamethasone 50 μM, RU-486 10 μM, rifampicin 100 μM, TCPOBOP 10 μM; compared with PB 600 μM
Method: The constructs were transfected together with a transfection-control construct expressing β-galactosidase into LMH cells. Cells were then treated with 600 μM PB for 16 h and luciferase assays were performed on the cell extracts. Relative luciferase levels are standardized against cells transfected with vector containing no insert and expressed as fold induction. Experiments were repeated at least three times and data from a representative experiment tested in triplicate are shown here. Error bars represent standard deviations;
Three major subclones were generated from the region upstream of the transcriptional start site, including a 3282 bp SmaI fragment and 5056 bp and 7973 bp EcoRI segments (FIG. 1A). The SmaI clone extends from −167 bp to −3449 bp, whereas the EcoRI subfragments span the regions from −2347 bp to −7402 bp and −7403 bp to −15376 bp, respectively. These subfragments were cloned into the pLucMCS modified luciferase vector containing an SV40 promoter as described in Materials and Methods. Drug inducibility was measured in transiently transfected LMH cells treated with 600 μM PB and compared with control values. […]
The modified enhancers were examined for response to 600 μM PB in luciferase reporter gene assays and the results are presented in FIG. 3.
Leghorn Male Hepatoma (LMH) cells were obtained from the American Type Culture Collection and cultivated in 10 cm dishes in Williams E medium supplemented with 10% FCS, 1% glutamine (2 mM) and 1% penicillin/streptomycin (50 IU/ml). Dishes coated with 0.1% gelatin were used for routine culture of LMH cells in order to facilitate proper seating of the cells onto the plastic plate surface.

ALAS1 mRNA = ALAS1 mRNA quantification (Taqman real-time PCR) in LMH cells; format: cell-based, chicken; conditions: LMH cells, 16 h; PB 600 μM, dexamethasone 50 μM, RU-486 10 μM, rifampicin 100 μM, TCPOBOP 10 μM
Method: We next wanted to compare ADRES-mediated ALAS1 induction levels from reporter gene assays with stimulation of transcription in a physiological system. […] In addition, the common CYP3A inducers dexamethasone (50 μM), metyrapone (400 μM), and 10 μM mifepristone (RU-486) were employed for comparison. We were also interested in the effects of […] 5-pregnen-3β-ol-20-one-16α-carbonitrile (PCN) and rifampicin (100 μM) due to their species-specific effects on PXR activation and CYP3A induction. Messenger RNA was reverse transcribed and levels of ALAS1 cDNA were quantified using the Taqman real-time PCR quantification system as described in Materials and Methods. […] This value was chosen to represent 100% induction, against which all other values are compared.
LMH cells were plated onto 12-well plates, expanded to 70-80% surface density and incubated in serum-free media for 24 h. Cells were then exposed to either drug or vehicle and RNA was isolated with Trizol reagent (Gibco BRL) according to the manufacturer protocol. One μg of total RNA was reverse transcribed with the Moloney murine leukemia virus reverse transcriptase kit (Roche Molecular Biochemicals). PCR was performed using the Taqman PCR core reagent kit (PE Applied Biosystems) and transcript levels quantitated with an ABI Prism 7700 sequence detection system (PE Applied Biosystems). Relative transcript levels were determined using the relative quantitation method measuring the ΔΔCt. The following primers and probes were used in these reactions. […] Transcript levels were measured in separate tubes and GAPDH values were used for normalization of ALAS1 values.

mouse CAR = molecular target: T2, mouse CAR (Mus musculus, UniProt O35627); assay: Transactivation of 369 bp ADRES by mouse CAR in CV-1 cells (CAT reporter); format: cell-based; conditions: TCPOBOP, 16 h
T2 construct: expressed in transfected cells; host or cells: CV-1 cells, pSG5 expression vector
T2 sequence (O35627 1-358): T1 sequence (O35627 1-358)
Method: To test the effects of the mutations on transcriptional activation, transactivations in CV-1 cells with mouse PXR and mouse CAR and their respective inducers PCN and TCPOBOP, were performed (FIG. 14). The inducible DNA constructs were subcloned into the CAT5 reporter vector and tested for their ability to be transactivated by nuclear receptor transcription factors in CV-1 cells. Mouse PXR (A) and mouse CAR (B) coding regions cloned into the pSG5 expression vector were cotransfected along with a vector expressing pSV β-galactosidase as control. Cells were then treated for 16 h with either drugs (A, PCN; B, TCPOBOP) or vehicle control and cell extracts were analyzed for CAT expression normalized against β-galactosidase levels. Experiments were repeated at least three times and error bars represent standard deviations.

mouse 369 bp DRES = assay: Luciferase reporter gene assay of mouse ALAS1 fragments / 369 bp DRES in LMH cells; format: cell-based; conditions: metyrapone 500 μM, glutethimide 500 μM, PIA 250 μM
Method: A 175 bp fragment (441 to 615) (Seq. Id. No. 3) was isolated by digesting the 2.6 kb fragment with SacI/XbaI. All fragments were subcloned in the pGL3LUCpro+MCS vector and the resulting constructs tested for inducibility in LMH reporter gene assay (FIG. 6). […] The 369 bp fragment was termed Drug responsive enhancer sequence DRES.
To compare the 369 bp DRES to other inducible fragments, a series of different drugs was used as inducers: clothrimazole (Clo, 10 μM), dexamethasone (Dex, 50 μM), glutethimide (GE, 500 μM), metyrapone (Met, 500 μM), phenobarbital (PB, 500 μM), PCN (10 μM), propylisopropylacetamide (PIA, 250 μM), rifampicin (Rif, 10 μM), RU486 (10 μM), TCPOBOP (10 μM).
Data shown is from two independent experiments.

[2] = tested on: human ALAS1 gene fragments (hA795, hA174, hA8, hA240); assay: Luciferase reporter gene assay of human ALAS1 fragments in LMH cells; format: cell-based; conditions: 24 h, 400 μM PB or 250 μM PIA
Method: Fragments were cloned into the pGL3 luciferase reporter vector (Promega Corp) and tested for inducibility by the prototypical HALAS1 inducers phenobarbital (PB) and propylisopropylacetamid (PIA). Four hours after transfection of LMH cells with the constructs, cells were exposed to the drugs for 24 hours, after which luciferase activity was assayed. Results were normalized for transfection efficiency by assaying for activity of co-transfected β-galactosidase. Data shown is one representative experiment (FIG. 11).
We investigated in more detail the contribution of various response element half-sites to drug-induction mediated by this element. Within the hA174 element, an arrangement of three nuclear receptor response element half-sites was found, which lead: to the prediction of a DR-4 type, as well as a DR-5 type response element (of. FIG. 18A). By site-directed mutagenesis, we examined the involvement of each of these half-sites to drug induction. In the context of the 2xhA174 reporter construct, each single half-site was mutated in both copies of the hA174 element. The wild-type and mutant constructs were subsequently tested for reporter gene activation in LMH cells as described above. Cells were induced with 400 μM phenobarbital (PB) or 250 μM propylisopropylacetamid (PIA). As a control, vehicle alone (0.1% DMSO) was added to the cells. After 24 hours, luciferase activity was assayed and normalized against co-transfected β-galactosidase activity in order to compensate for transfection efficiency. […] From this, we conclude that the DR-4 element, consisting of the HS1 and HS2 half-sites, is essential for drug induction. The change in induction observed by mutagenesis of the HS3 half-site may indicate a modulatory role for the half-site alone or as a DR-5 in combination with HS2 in drug induction. Data shown are the mean+1SD of three independent experiments.
In order to define a core sequence retaining inducibility, the hA8 fragment (Seq. Id. No. 10), which carries PCR-introduced KpnI and XhoI restriction sites at its ends, was digested with SacI and NsiI. The resulting four fragments, a 100 bp KpnI/SacI fragment, a 374 bp SacI/NsiI fragment, a 240 bp NsiI/NsiI fragment, and a 231 bp NsiI/XhoI fragment, were cloned into a reporter gene vector and subsequently tested for drug induction in LMH cells. Of these fragments, only the 240 bp fragment (called hA240) (Seq. Id. No. 39) was able to convey transcriptional activation in response to drugs. Within the core hA240 fragment, we then mutated both half-sites of a predicted DR-4 element (cf. FIG. 18B) and observed the effect of this mutation on drug induction (240mutDR4). Alteration of the DR4 element half-sites abolished drug induction in LMH cell reporter gene assays. […]

[3] = molecular target: T3, human 9-cis retinoic acid receptor RXRα (human, UniProt P19793 1-462); assay: electrophoretic mobility shift, hA240 probe; no complex with single receptors (FIG. 19B)
T3 construct: also called human RXRα
T3 sequence (looked up): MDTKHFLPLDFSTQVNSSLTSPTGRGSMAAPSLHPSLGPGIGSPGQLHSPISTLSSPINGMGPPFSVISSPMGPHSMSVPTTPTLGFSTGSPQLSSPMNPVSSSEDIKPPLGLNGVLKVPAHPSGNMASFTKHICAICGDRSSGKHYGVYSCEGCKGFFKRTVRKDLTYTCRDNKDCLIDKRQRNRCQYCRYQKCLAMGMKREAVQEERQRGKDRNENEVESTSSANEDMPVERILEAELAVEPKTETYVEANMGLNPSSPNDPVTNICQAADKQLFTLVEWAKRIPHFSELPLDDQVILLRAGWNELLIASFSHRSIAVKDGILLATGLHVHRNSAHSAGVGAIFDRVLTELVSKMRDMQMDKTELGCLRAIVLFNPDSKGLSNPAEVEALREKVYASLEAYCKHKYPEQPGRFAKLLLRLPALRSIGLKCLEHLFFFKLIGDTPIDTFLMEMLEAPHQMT
Excerpt: FIG. 19 depicts the results of an electrophoretic mobility shift assay, assaying the ability of human PXR and human CAR to bind to the hA174 and hA240 elements. Binding of these nuclear receptors happens in a heterodimeric state with the human 9-cis retinoic acid receptor RXRα. From expression plasmids encoding human RXRα, […] or CAR, receptor protein was made in vitro using the TNT reticulocyte lysate coupled transcription/translation system (Promega Corp.).
FIG. 19B: Instead of the hA174 fragment, wild-type or DR4-mutant hA240 fragment was radiolabeled and used as probe. Lanes 1-4: Wildtype hA240 was incubated with no receptor (mock transcription/translation) or with RXRα, PXR or CAR alone. No complex is observed using single receptors. Lanes 5 and 7: Wild-type hA240 was incubated with RXRα and PXR or RXRα and CAR, upon which complex formation between radiolabeled probe and protein is observed. Lanes 6 and 8: Same conditions as in lanes 5 and 7, but instead of wild-type probe, radiolabeled hA240DR4(2) mutant was used. No complex is formed.

Molecule: C[C@]12CC[C@@H](O)C[C@@H]1CC[C@@H]1[C@@H]2CC[C@]2(C)C=CC[C@@H]12 [3α-androstenol]
- mCAR induced activity remaining after repression (mCAR; human ALAS1 fragments hA795, hA8, hA174, inverse agonist): approximately 50%

Molecule: Clc1cnc(Oc2ccc(Oc3ncc(Cl)cc3Cl)cc2)c(Cl)c1 [TCPOBOP, 1,4-Bis[2-(3,5-dichloropyridyloxy)]benzene]
- ADRES activation in reporter assays [1]: no response
- effect on ALAS1 mRNA levels (ALAS1 mRNA): no response
- induction capacity, DR4-1,2/hs1,2 quadruple mutant (mouse CAR): completely eliminated
- induction exceeding basal levels, DR4-2/hs1 construct (mouse CAR): 1.4 fold
- induction, DR4-2/hs2 construct or DR4-2 double mutant (mouse CAR): no induction was observed
- response, DR4-1 single and double mutants (mouse CAR): did not exhibit any response
- reversal of 3α-androstenol repression of mCAR induced activity (mCAR; human ALAS1 fragments, direct agonist): reversible

Molecule: CCCC(C(N)=O)C(C)C (stereo not shown) [PIA, Propylisopropylacetamide]
- ADRES activation in reporter assays [1]: in excess of levels obtained from PB treatment
- induction of the 369 bp DRES, ranking of drugs (mouse 369 bp DRES): strongest inducer
- inducibility of 2xhA174, HS1 or HS2 half-site mutated [2]: abolishment of inducibility
- induction of 2xhA174, HS3 half-site altered [2]: merely reduces induction levels

B1: human pregnane X receptor (PXR) (receptor, UniProt O75469 1-434, looked up)
chain: MEVRPKESWNHADFVHCEDTESVPGKPSVNADEEVGGPQICRVCGDKATGYHFNVMTCEGCKGFFRRAMKRNARLRCPFRKGACEITRKTRRQCQACRLRKCLESGMKKEMIMSDEAVEERRALIKRKKSERTGTQPLGVQGLTEEQRMMIRELMDAQMKTFDTTFSHFKNFRLPGVLSSGCELPESLQAPSREEAAKWSQVRKDLCSLKVSLQLRGEDGSVWNYKPPADSGGKEIFSLLPHMADMSTYMFKGIISFAKVISYFRDLPIEDQISLLKGAAFELCQLRFNTVFNAETGTWECGRLSYCLEDTAGGFQQLLLEPMLKFHYMLKKLQLHEEEYVLMQAISLFSPDRPGVLQHRVVDQLQEQFAITLKSYIECNRPQPAHRFLFLKIMAMLTELRSINAQHTQRLLRIQDIHPFATPLMQELFGITGS
notes: also called human PXR; hPXR
- binding result [3]: binds
